# Reference: patent US20030044413A1, “Methods of limiting apoptosis of cells” (Regents of the University of Minnesota, priority 1998, published 2003)
# Like-named read-outs stand apart in the source and are kept apart here.
# How the values were obtained:
# Bad = experiment: Western blot, liver of bile acid fed rats: Bad; format: in vivo, rat; settings: bile acid feeding
# Protocol: Male 160-175 g Sprague-Dawley rats (Sprague-Dawley, Indianapolis, Ind.), were maintained on a 12 h light-dark cycle and fed standard laboratory chow ad libitum for 3 days. The animals were then transferred to metabolic cages and fed diets of standard laboratory chow supplemented with either no bile acid or 0.4% (wt/wt) DCA, 0.4% UDCA, or a combination of DCA+UDCA (Bio-Serv, Frenchtown, N.J.). On day 10, the animals were sacrificed by exsanguination under ether anesthesia between 9 a.m. and 11 a.m. The livers were removed, rinsed in normal saline, and flash-frozen in liquid nitrogen until western blot analyses of apoptosis-related proteins were performed.
# Cytoplasmic proteins were isolated from rat liver tissue as described previously (Trembley et al., Cell Growth & Differ., 7, 903-916 (1996)). […] Cytoplasmic and mitochondrial protein concentrations were determined using the Bio-Rad protein assay (Bio-Rad Laboratories). […]
# Video densitometry was accomplished using a Macintosh II (Apple Computer, Cupertino, Calif.) coupled to a Data Translation DT2255 video digitizer (Data Translation, Marlboro, Mass.) and a JVC GX-N8 video camera (JVC Corporation of America, Elmwood Park, N.J.) as described previously (Kren et al., J. Cell Biol., 123, 707-718 (1993)). Quantitation of the autoradiograms was performed using the NIH Image 1.4 densitometric analysis program.
# rat primary hepatocytes = experiment: FACS analysis of ΔΨm and ROS, rat primary hepatocytes; format: cell-based; settings: for Peroxides Production (%) Inducer + UDCA: 100 μM UDCA pretreatment 60 min; for inhibition at 100 µM: Rattus norvegicus, Hepatocyte, 100 μM UDCA, read-out: % Inhibition of peroxides production; for Inhibition % Superoxide Anion / Inhibition % _Ψm: inhibition by UDCA
# Protocol: (§1) A ΔΨm and ROS measurement. ΔΨm and ROS production were measured by FACScan (Becton Dickinson) analysis. Freshly isolated rat hepatocytes were cultured for 3 h as described above and then incubated with William's E medium supplemented with either 100 μM DCA, 100 μM UDCA, equal molar amounts of both, or no bile acid (control), for 6 h. Rat hepatocytes were also cultured with either 1% ethanol, 100 μM UDCA, ethanol+UDCA, or no addition (control) for 4 h. HuH-7 cells, Hep G2 cells, and human osteogenic sarcoma Saos-2 cells were incubated with TGF-β1, anti-Fas antibody or okadaic acid, respectively, for 48 h under the same conditions as outlined above. For combination studies, cells were pretreated with UDCA or hyodeoxycholic acid for 60 min prior to addition of DCA, ethanol, TGF-β1, anti-Fas antibody or okadaic acid. Aliquots of 1.0×10^6 cells were incubated for 15 min at 37° C. with 50 nM 3,3′-dihexyloxacarbocyanine iodide [DiOC6(3)], 2 μM dihydroethidium (HE), or 5 μM 2′,7′-dichlorofluorescin diacetate (H2DCFDA; Molecular Probes, Inc. Eugene, Oreg.) and analyzed by cytofluorometry (Cathcart et al., Anal. Biochem., 134, 111-116 (1983); Zamzami et al., J. Exp. Med., 181, 1661-1672 (1 995); Carter et al., J. Leukocyte Biol., 55, 253-258 (1994)).
# (§2) Rat primary hepatocytes were incubated with 100 μM DCA and 1% ETOH for 6 h and 4 h, respectively; HuH-7 cells with 1 nM TGF-β1 for 48 h; Hep G2 cells with 0.5 μg/ml anti-Fas antibody (CH-11) for 48 h, and Saos-2 cells with 50 nM okadaic acid (OA) for 48 h. In each combination group, cells were pretreated with 100 μM UDCA alone for 60 min prior to addition of the inducer. Aliquots of 1.0×10^6 cells were incubated for 15 min at 37° C. with 5 μM 2′,7′-dichlorofluorescin diacetate (H2DCFDA) and analyzed by cytofluorometry.
# cytochrome c = experiment: Cytochrome c content of cytosol and mitochondria of rat hepatocytes; format: cell-based; settings: Hepatocyte, hepatocytes with DCA, TGF-β1 or okadaic acid, 100 μM UDCA
# Protocol: (§3) Isolation of cytosol and mitochondrial fractions and determination of cytochrome c and Bax content. Freshly isolated rat hepatocytes were cultured for 3 hours as described above and then incubated with William's medium supplemented with either 50 μM of DCA for 4 h, 1 nM TGF-β1 for 24 h and […] okadaic acid for 16 h, in the presence or absence of 100 μM UDCA, or no addition (control). Time-course experiments were also performed. Cells (1.0×10^7/ml) were harvested by centrifugation at 600×g for 5 min at 4° C. The cell pellets were washed once in ice-cold PBS and resuspended with 3 volumes of isolation buffer containing 20 mM Hepes-KOH, pH 7.5, 10 mM KCl, 1.5 mM MgCl2, 1 mM sodium EDTA, 1 mM sodium EGTA, 1 mM dithiothreitol (DTT), suplemmented with the COMPLETE protease inhibitor cocktail (Boehringer Mannheim Biochemicals, Inc., Indianapolis, Ind.) in 250 mM sucrose. After chiling on ice for 15 min, the cells were disrupted by 40 stokes of a glass homogeneizer and the homogenates were centrifuged twice at 2,500×g for 10 min at 4° C. to remove unbroken cells and nuclei. The mitochondria were pelleted by centrifugation at 12,000×g for 30 min at 4° C., resuspended in isolation buffer containing 250 mM sucrose and frozen at −80° C. […]
# PARP = PARP cleavage in rat hepatocytes; format: cell-based; settings: pretreatment with UDCA; DCA, TGF-β1 or okadaic acid
# Description: Determination of PARP cleavage. For the determination of PARP cleavage, total protein were separated on a 8% SDS-polyacrylamide electrophoresis gel. Blots were probed with primary polyclonal antibody to PARP (Santa Cruz Biotechnology).
# HuH-7 cells = experiment: FACS analysis of ΔΨm and ROS, HuH-7 cells; format: cell-based, human
# Protocol: as §1, §2
# Bax = Bax translocation from cytosol to mitochondria in rat hepatocytes; format: cell-based; settings: preincubation with UDCA
# Protocol: as §3
# Hep G2 cells = experiment: FACS analysis of ΔΨm and ROS, Hep G2 cells; format: cell-based
# Protocol: as §1, §2
# Saos-2 cells = experiment: FACS analysis of ΔΨm and ROS, Saos-2 cells; format: cell-based, human
# Protocol: as §1, §2
# [1] = inducer TGF-β1, HuH-7, inhibition by UDCA
# [2] = inducer CH-11, Hep G2, inhibition by UDCA
# [3] = inducer OA, Saos-2, inhibition by UDCA
compound,measurement,setting,value
"C[C@H](CCC(=O)O)[C@H]1CC[C@H]2[C@@H]3CC[C@@H]4C[C@H](O)CC[C@]4(C)[C@H]3C[C@H](O)[C@]12C [DCA, deoxycholic acid]","cytoplasmic Bad expression, increase",Bad,approximately 2 fold
same,Peroxides Production (%) Inducer,"rat primary hepatocytes; 100 μM DCA, 6 h, hepatocytes",12.8 ± 0.9%
"C[C@H](CCC(=O)O)[C@H]1CC[C@H]2[C@@H]3[C@@H](O)C[C@@H]4C[C@H](O)CC[C@]4(C)[C@H]3CC[C@]12C [UDCA, ursodeoxycholic acid]",inhibition at 100 µM,cytochrome c; read-out: inhibition of cytochrome c depletion from the mitochondria,70%
same,inhibition at 100 µM,cytochrome c; read-out: inhibition of cytochrome c release to the cytosol,60%
same,Peroxides Production (%) Inducer + UDCA,rat primary hepatocytes; 100 μM DCA 6 h,4.4 ± 1.5 %
same,Peroxides Production (%) Inducer + UDCA,rat primary hepatocytes; 1% ETOH 4 h,10.7 ± 3.6 %
same,inhibition at 100 µM,"rat primary hepatocytes; inducer DCA, hepatocytes",65.8 ± 12.4%
same,inhibition at 100 µM,"rat primary hepatocytes; inducer ETOH, hepatocytes",39.5 ± 12.6%
same,Inhibition % Superoxide Anion,"rat primary hepatocytes; inducer DCA, hepatocytes",93.5 ± 17.2%
same,Inhibition % _Ψm,"rat primary hepatocytes; inducer DCA, hepatocytes",60.2 ± 6.1 %
same,Inhibition % Superoxide Anion,"rat primary hepatocytes; inducer ETOH, hepatocytes",86.6 ± 5.6%
same,Inhibition % _Ψm,"rat primary hepatocytes; inducer ETOH, hepatocytes",61.7 ± 33.9%
same,prevention of PARP cleavage,PARP,60%
same,Peroxides Production (%) Inducer + UDCA,"HuH-7 cells; 1 nM TGF-β1 48 h, 100 μM UDCA pretreatment 60 min",5.8 ± 2.9 %
same,inhibition at 100 µM,"HuH-7 cells; Homo sapiens, inducer TGF-β1, HuH-7, 100 μM UDCA, read-out: % Inhibition of peroxides production",47.3 ± 16%
same,Inhibition % Superoxide Anion,HuH-7 cells; [1],69.9 ± 15.6%
same,Inhibition % _Ψm,HuH-7 cells; [1],45.0 ± 21.7%
same,prevention of Bax translocation,Bax,45%
same,Peroxides Production (%) Inducer + UDCA,"Hep G2 cells; 0.5 μg/ml CH-11 48 h, 100 μM UDCA pretreatment 60 min",6.2 ± 1.3 %
same,inhibition at 100 µM,"Hep G2 cells; Homo sapiens, HepG2, inducer CH-11, Hep G2, 100 μM UDCA, read-out: % Inhibition of peroxides production",52.2 ± 14.9%
same,Inhibition % Superoxide Anion,Hep G2 cells; [2],55.1 ± 10.8 %
same,Inhibition % _Ψm,Hep G2 cells; [2],63.1 ± 11.9%
same,Peroxides Production (%) Inducer + UDCA,"Saos-2 cells; 50 nM OA 48 h, 100 μM UDCA pretreatment 60 min",5.4 ± 1.5 %
same,inhibition at 100 µM,"Saos-2 cells; Homo sapiens, inducer OA, Saos-2, 100 μM UDCA, read-out: % Inhibition of peroxides production",64.6 ± 7.5%
same,Inhibition % Superoxide Anion,Saos-2 cells; [3],77.6 ± 18.1%
same,Inhibition % _Ψm,Saos-2 cells; [3],21.9 ± 10.7 %
C=C1[C@@H](O)[C@@H]2O[C@]3(CC[C@H](/C=C/[C@@H](C)[C@@H]4CC(C)=C[C@@]5(O[C@H](C[C@@](C)(O)C(=O)O)CC[C@H]5O)O4)O3)CC[C@H]2O[C@@H]1[C@@H](O)C[C@H](C)[C@H]1O[C@@]2(CCCCO2)CC[C@H]1C [okadaic acid],Peroxides Production (%) Inducer,"Saos-2 cells; 50 nM OA, 48 h, Saos-2",15.0 ± 1.1%
"TGF-β1: transforming growth factor β1, nonmembrane damaging inducer of apoptosis",Peroxides Production (%) Inducer,"HuH-7 cells; 1 nM TGF-β1, 48 h, HuH-7",11.0 ± 2.9%
